Experimental findings from PMC6934184, “Selective DNA-PKcs inhibition extends the therapeutic index of localized radiotherapy and chemotherapy” (The Journal of Clinical Investigation, 2019) are described below.

What is called inhibition is the relative decrease from the control value, in per cent.

This test deals with T1, GSG2 (Haspin) (Homo sapiens, UniProt Q8TF76).
T1 construct: purchased Thermo Fisher Scientific (Life Technologies) SelectScreen
The test is described as follows: SelectScreen Adapta. In kind it is biochemical. In short, it runs like this:
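NU5455 was profiled across the SelectScreen Broad panel of kinase activity and binding assays. Z'LYTE reactions such as CSF1R ran at apparent Km ATP, while the Adapta CAMK1 assay used ATP listed as 10. Values are given as percent.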

The structures appear in SMILES notation.

T1 sequence (Q8TF76 whole entry): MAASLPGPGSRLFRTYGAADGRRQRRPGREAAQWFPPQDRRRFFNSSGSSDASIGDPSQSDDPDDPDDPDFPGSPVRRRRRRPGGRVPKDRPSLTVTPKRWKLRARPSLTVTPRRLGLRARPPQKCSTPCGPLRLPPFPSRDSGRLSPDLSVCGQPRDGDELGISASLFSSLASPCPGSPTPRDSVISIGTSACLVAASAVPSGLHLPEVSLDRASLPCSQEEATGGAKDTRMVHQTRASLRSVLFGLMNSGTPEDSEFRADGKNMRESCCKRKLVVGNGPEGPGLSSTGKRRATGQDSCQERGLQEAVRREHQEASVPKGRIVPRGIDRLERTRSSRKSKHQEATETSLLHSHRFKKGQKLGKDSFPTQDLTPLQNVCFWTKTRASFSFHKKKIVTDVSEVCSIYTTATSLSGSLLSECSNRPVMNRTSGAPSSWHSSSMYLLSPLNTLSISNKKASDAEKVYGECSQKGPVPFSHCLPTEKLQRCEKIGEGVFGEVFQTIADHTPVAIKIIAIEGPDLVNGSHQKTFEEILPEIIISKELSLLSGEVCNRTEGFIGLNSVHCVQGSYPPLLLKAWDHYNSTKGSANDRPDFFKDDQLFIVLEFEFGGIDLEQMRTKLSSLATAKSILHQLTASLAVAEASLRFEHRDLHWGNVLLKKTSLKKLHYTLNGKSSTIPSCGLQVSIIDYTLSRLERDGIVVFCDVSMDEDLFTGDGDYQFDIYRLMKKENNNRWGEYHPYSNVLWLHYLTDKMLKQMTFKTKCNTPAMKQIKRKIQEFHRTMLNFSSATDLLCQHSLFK

On to `CN(C(=O)CN1CCOCC1)c1ccc2sc3c(-c4cccc5c(=O)cc(N6CC7CCC(C6)O7)oc45)cccc3c2c1` [NU5455], for which the inhibition at 1 µM is -15%.
